Read-outs that look alike come from different tables or passages of the source.
Experiments:
Full-length human STING = tested on: T1, Full-length human STING; type: cell-based
T1 construct: Full-length human STING (Gene ID 340061); expressed in transfected cells; host or cells: HEK293T
Description: Functional Assay III (HEX WT agonist assay): Activation of STING in cells may be determined using a luciferase reporter assay in human embryonic kidney cells (HEK293T) co-transfected with plasmids expressing STING and the enzyme firefly luciferase driven by the interferon stimulated response element promoter (pISRE-Luc) (Agilent Technologies). […] Transfections were prepared using a cell suspension with Fugene® 6 following the manufacturer's instructions (3:1 Fugene®:DNA). […] of the transfection suspension was dispensed into wells of a 384-well plate containing 250 nL of a compound of Formula (I). […] Control wells expected to generate maximal activation of STING were cotransfected with a cGAS expression plasmid. Plates were sealed and incubated for 24 hours at 37° C. The expression of firefly luciferase was processed using Steady-Glo® luciferase assay system (Promega) and was analyzed using a standard laboratory luminescence plate reader. Data was normalized to luminescence response in the presence of cGAS, was plotted as a function of compound concentration, and fit using a standard model of receptor activation to derive the pEC50.

[1] = tested on: C-terminal Domain (CTD) of human STING; conditions: 500 pM STING, 100 nM Alexa488 probe, 15 min at room temperature
[2] = HEK293T co-transfected with STING and pISRE-Luc, 24 hours at 37° C., normalized to cGAS response

| SMILES | HEK assay (pEC50) (Full-length human STING; [2]) | FRET assay (pIC50) [1] | HEK assay (pEC50) (Full-length human STING) |
| --- | --- | --- | --- |
| CCn1nc(C)cc1C(=O)Nc1nc2cc(C(N)=O)ccc2n1C [Example 1, 2-(1-ethyl-3-methyl-1H-pyrazole-5-carboxamido)-1-methyl-1H-benzo[d]imidazole-5-carboxamide] | 4.4 | 4.4 |  |
| C=CCn1c(NC(=O)c2cc(C)nn2CC)nc2cc(C(N)=O)ccc21 [Example 2, 1-allyl-2-(1-ethyl-3-methyl-1H-pyrazole-5-carboxamido)-1H-benzo[d]imidazole-5-carboxamide] | 4.5 | 4.6 |  |
| CCCn1c(NC(=O)c2cc(C)nn2CC)nc2cc(C(N)=O)cc(OC)c21 [Example 3, 2-(1-ethyl-3-methyl-1H-pyrazole-5-carboxamido)-7-methoxy-1-propyl-1H-benzo[d]imidazole-5-carboxamide] | 6 | 5.5 |  |
| C=CCn1c(NC(=O)c2cc(C)nn2CC)nc2cc(C(N)=O)cc(OCCCO)c21 [Example 4, 1-Allyl-2-(1-ethyl-3-methyl-1H-pyrazole-5-carboxamido)-7-(3-hydroxypropoxy)-1H-benzoylimidazole-5-carboxamide] | 4.5 | 4.9 |  |
| CCn1nc(C)cc1C(=O)Nc1nc2cc(C(N)=O)cc(OC)c2n1CCCN1CCOCC1 [Example 9, 2-(1-ethyl-3-methyl-1H-pyrazole-5-carboxamido)-7-methoxy-1-(3-morpholinopropyl)-1H-benzo[d]imidazole-5-carboxamide] | 5.1 | 5.1 |  |
| CCCn1c(NC(=O)c2cc(C)nn2CC)nc2cc(C(N)=O)cc(OCCCO)c21 [Example 13, 2-(1-ethyl-3-methyl-1H-pyrazole-5-carboxamido)-7-(3-hydroxypropoxy)-1-propyl-1H-benzo-[d]imidazole-5-carboxamide] | 5.4 |  |  |
| C=CCn1c(NC(=O)c2cc(C)nn2CC)nc2cc(C(N)=O)cc(OC)c21 [Example 14, 1-allyl-2-(1-ethyl-3-methyl-1H-pyrazole-5-carboxamido)-7-methoxy-1H-benzo[d]imidazole-5-carboxamide] | 5.6 | <3.9 |  |
| CCn1nc(C)cc1C(=O)Nc1nc2cc(C(N)=O)cc(OC)c2n1CCCCNC(=O)OC(C)(C)C [Example 17, tert-butyl (4-(5-carbamoyl-2-(1-ethyl-3-methyl-1H-pyrazole-5-carboxamido)-7-methoxy-1H-benzo[d]imidazol-1-yl)butyl)carbamate] | 6.1 |  |  |
| CCCCn1c(NC(=O)c2cc(C)nn2CC)nc2cc(C(N)=O)cc(OC)c21 [Example 24, 1-butyl-2-(1-ethyl-3-methyl-1H-pyrazole-5-carboxamido)-7-methoxy-1H-benzo[d]imidazole-5-carboxamide] | 6.0 |  |  |
| CCn1nc(C)cc1C(=O)Nc1nc2cc(C(N)=O)cc(OC)c2n1CCC(C)C [Example 27, (1-ethyl-3-methyl-1H-pyrazole-5-carboxamido)-1-isopentyl-7-methoxy-1H-benzo[d]imidazole-5-carboxamide] | 5.5 |  |  |
| CCCn1c(NC(=O)c2cc(C)nn2CC)nc2c(OC)c(C(N)=O)ccc21 [Example 30, 2-(1-ethyl-3-methyl-1H-pyrazole-5-carboxamido)-4-methoxy-1-propyl-1H-benzo[d]imidazole-5-carboxamide] |  | 5.0 |  |
| CCn1nc(C)cc1C(=O)Nc1nc2cc(C(N)=O)cc(OC(C)C)c2n1CCCN1CCOCC1 [Example 37, 2-(1-ethyl-3-methyl-1H-pyrazole-5-carboxamido)-7-isopropoxy-1-(3-morpholinopropyl)-1H-benzo[d]imidazole-5-carboxamide] |  | 5.5 |  |
| CCCn1c(NC(=O)c2cc(C)nn2CC)nc2cc(C(N)=O)cc(CN3CCOCC3)c21 [Example 41, 2-(1-ethyl-3-methyl-1H-pyrazole-5-carboxamido)-7-(morpholinomethyl)-1-propyl-1H-benzoylimidazole-5-carboxamide] |  | 5.4 |  |
| CCn1nc(C)cc1C(=O)Nc1nc2cc(C(N)=O)cc(OC)c2n1CCCc1cccnc1 [Example 50, 2-(1-ethyl-3-methyl-1H-pyrazole-5-carboxamido)-7-methoxy-1-(3-(pyridin-3-yl)propyl)-1H-benzoylimidazole-5-carboxamide] |  | 5.3 |  |
| CCn1nc(C)cc1C(=O)Nc1nc2cc(C(N)=O)cc(OC)c2n1CCCNC(=O)OCc1ccccc1 [Example 53, benzyl (3-(5-carbamoyl-2-(1-ethyl-3-methyl-1H-pyrazole-5-carboxamido)-7-methoxy-1H-benzo[d]imidazol-1-yl)propyl)carbamate] |  |  | 6.2 |
| CCCn1c(NC(=O)c2cc(CC)nn2CC)nc2cc(C(N)=O)cc(OC)c21 [Example 57, 2-(1,3-diethyl-1H-pyrazole-5-carboxamido)-7-methoxy-1-propyl-1H-benzo[d]imidazole-5-carboxamide] | 5.5 |  |  |

Reference: US10975287B2, “Heterocyclic amides useful as protein modulators” (GlaxoSmithKline Intellectual Property Development Limited, priority 2017, dated 2021)
